From ChEMBL document CHEMBL4765227, “Hit to lead optimization of a series of N-[4-(1,3-benzothiazol-2-yl)phenyl]acetamides as monoacylglycerol lipase inhibitors with potential anticancer activity” (Eur J Med Chem, 2016)

Legend:
Type in all cases: functional
Settings in all cases: read-out: GI
M14 = test: Growth inhibition of human M14 cells at 10 uM incubated for 48 hrs by sulforhodamine B assay relative to control
UACC-62 = test: Growth inhibition of human UACC-62 cells at 10 uM incubated for 48 hrs by sulforhodamine B assay relative to control
PC-3 = test: Growth inhibition of human PC-3 cells at 10 uM incubated for 48 hrs by sulforhodamine B assay relative to control
SK-MEL-5 = test: Growth inhibition of human SK-MEL-5 cells at 10 uM incubated for 48 hrs by sulforhodamine B assay relative to control
K562 = test: Growth inhibition of human K562 cells at 10 uM incubated for 48 hrs by sulforhodamine B assay relative to control
COLO 205 = test: Growth inhibition of human COLO 205 cells at 10 uM incubated for 48 hrs by sulforhodamine B assay relative to control
MDA-MB-231 = test: Growth inhibition of human MDA-MB-231 cells at 10 uM incubated for 48 hrs by sulforhodamine B assay relative to control
786-0 = test: Growth inhibition of human 786-0 cells at 10 uM incubated for 48 hrs by sulforhodamine B assay relative to control
RXF 393 = test: Growth inhibition of human RXF 393 cells at 10 uM incubated for 48 hrs by sulforhodamine B assay relative to control
NCI/ADR-RES = test: Growth inhibition of human NCI/ADR-RES cells at 10 uM incubated for 48 hrs by sulforhodamine B assay relative to control
ACHN = test: Growth inhibition of human ACHN cells at 10 uM incubated for 48 hrs by sulforhodamine B assay relative to control
HCT-116 = test: Growth inhibition of human HCT-116 cells at 10 uM incubated for 48 hrs by sulforhodamine B assay relative to control
OVCAR-3 = test: Growth inhibition of human OVCAR-3 cells at 10 uM incubated for 48 hrs by sulforhodamine B assay relative to control
IGROV-1 = test: Growth inhibition of human IGROV-1 cells at 10 uM incubated for 48 hrs by sulforhodamine B assay relative to control
A549 = test: Growth inhibition of human A549/ATCC cells at 10 uM incubated for 48 hrs by sulforhodamine B assay relative to control
NCI-H322M = test: Growth inhibition of human NCI-H322M cells at 10 uM incubated for 48 hrs by sulforhodamine B assay relative to control
HT-29 = test: Growth inhibition of human HT-29 cells at 10 uM incubated for 48 hrs by sulforhodamine B assay relative to control
SK-OV-3 = test: Growth inhibition of human SK-OV-3 cells at 10 uM incubated for 48 hrs by sulforhodamine B assay relative to control
LOX IMVI = test: Growth inhibition of human LOX IMVI cells at 10 uM incubated for 48 hrs by sulforhodamine B assay relative to control
NCI-H226 = test: Growth inhibition of human NCI-H226 cells at 10 uM incubated for 48 hrs by sulforhodamine B assay relative to control
SN12C = test: Growth inhibition of human SN12C cells at 10 uM incubated for 48 hrs by sulforhodamine B assay relative to control
BT-549 = test: Growth inhibition of human BT-549 cells at 10 uM incubated for 48 hrs by sulforhodamine B assay relative to control
U-251 = test: Growth inhibition of human U-251 cells at 10 uM incubated for 48 hrs by sulforhodamine B assay relative to control
OVCAR-8 = test: Growth inhibition of human OVCAR-8 cells at 10 uM incubated for 48 hrs by sulforhodamine B assay relative to control
OVCAR-4 = test: Growth inhibition of human OVCAR-4 cells at 10 uM incubated for 48 hrs by sulforhodamine B assay relative to control
TK-10 = test: Growth inhibition of human TK-10 cells at 10 uM incubated for 48 hrs by sulforhodamine B assay relative to control
CAKI-1 = test: Growth inhibition of human CAKI-1 cells at 10 uM incubated for 48 hrs by sulforhodamine B assay relative to control
MOLT-4 = test: Growth inhibition of human MOLT-4 cells at 10 uM incubated for 48 hrs by sulforhodamine B assay relative to control
SR = test: Growth inhibition of human SR cells at 10 uM incubated for 48 hrs by sulforhodamine B assay relative to control
HL-60(TB) = test: Growth inhibition of human HL-60(TB) cells at 10 uM incubated for 48 hrs by sulforhodamine B assay relative to control
MDA-MB-435 = test: Growth inhibition of human MDA-MB-435 cells at 10 uM incubated for 48 hrs by sulforhodamine B assay relative to control
UO-31 = test: Growth inhibition of human UO-31 cells at 10 uM incubated for 48 hrs by sulforhodamine B assay relative to control
DU-145 = test: Growth inhibition of human DU-145 cells at 10 uM incubated for 48 hrs by sulforhodamine B assay relative to control
SF-539 = test: Growth inhibition of human SF-539 cells at 10 uM incubated for 48 hrs by sulforhodamine B assay relative to control
CCRF-CEM = test: Growth inhibition of human CCRF-CEM cells at 10 uM incubated for 48 hrs by sulforhodamine B assay relative to control
SF-295 = test: Growth inhibition of human SF-295 cells at 10 uM incubated for 48 hrs by sulforhodamine B assay relative to control
NCI-H522 = test: Growth inhibition of human NCI-H522 cells at 10 uM incubated for 48 hrs by sulforhodamine B assay relative to control
HOP-62 = test: Growth inhibition of human HOP-62 cells at 10 uM incubated for 48 hrs by sulforhodamine B assay relative to control
MCF7 = test: Growth inhibition of human MCF7 cells at 10 uM incubated for 48 hrs by sulforhodamine B assay relative to control
MDA-MB-468 = test: Growth inhibition of human MDA-MB-468 cells at 10 uM incubated for 48 hrs by sulforhodamine B assay relative to control
Hs-578T = test: Growth inhibition of human Hs-578T cells at 10 uM incubated for 48 hrs by sulforhodamine B assay relative to control
NCI-H460 = test: Growth inhibition of human NCI-H460 cells at 10 uM incubated for 48 hrs by sulforhodamine B assay relative to control
KM12 = test: Growth inhibition of human KM12 cells at 10 uM incubated for 48 hrs by sulforhodamine B assay relative to control
NCI-H23 = test: Growth inhibition of human NCI-H23 cells at 10 uM incubated for 48 hrs by sulforhodamine B assay relative to control

Compound: O=C(CN1CCCCC1)Nc1ccc(-c2nc3ccccc3s2)cc1
- inhibition of growth at 10 µM (M14): -5.76%
- inhibition of growth at 10 µM (UACC-62): 5.84%
- inhibition of growth at 10 µM (PC-3): 15.5%
- inhibition of growth at 10 µM (SK-MEL-5): 9.16%
- inhibition of growth at 10 µM (K562): 49.8%
- inhibition of growth at 10 µM (COLO 205): -5.35%
- inhibition of growth at 10 µM (MDA-MB-231): 41.5%
- inhibition of growth at 10 µM (786-0): 13.9%
- inhibition of growth at 10 µM (RXF 393): 13%
- inhibition of growth at 10 µM (NCI/ADR-RES): 6.26%
- inhibition of growth at 10 µM (ACHN): -5.42%
- inhibition of growth at 10 µM (HCT-116): 5.5%
- inhibition of growth at 10 µM (OVCAR-3): -0.25%
- inhibition of growth at 10 µM (IGROV-1): -10.3%
- inhibition of growth at 10 µM (A549): 5.89%
- inhibition of growth at 10 µM (NCI-H322M): -11.9%
- inhibition of growth at 10 µM (HT-29): 42.2%
- inhibition of growth at 10 µM (SK-OV-3): 4.61%
- inhibition of growth at 10 µM (LOX IMVI): 21%
- inhibition of growth at 10 µM (NCI-H226): 11.3%
- inhibition of growth at 10 µM (SN12C): 6.04%
- inhibition of growth at 10 µM (BT-549): 1.67%
- inhibition of growth at 10 µM (U-251): 22.8%
- inhibition of growth at 10 µM (OVCAR-8): -3.73%
- inhibition of growth at 10 µM (OVCAR-4): 4.89%
- inhibition of growth at 10 µM (TK-10): -14.8%
- inhibition of growth at 10 µM (CAKI-1): 9.3%
- inhibition of growth at 10 µM (MOLT-4): 14.3%
- inhibition of growth at 10 µM (SR): 56%
- inhibition of growth at 10 µM (HL-60(TB)): 15.8%
- inhibition of growth at 10 µM (MDA-MB-435): -6.67%
- inhibition of growth at 10 µM (UO-31): 6.94%
- inhibition of growth at 10 µM (DU-145): 0.74%
- inhibition of growth at 10 µM (SF-539): -0.41%
- inhibition of growth at 10 µM (CCRF-CEM): 10.4%
- inhibition of growth at 10 µM (SF-295): 4.43%
- inhibition of growth at 10 µM (NCI-H522): -4.5%
- inhibition of growth at 10 µM (HOP-62): 7.87%
- inhibition of growth at 10 µM (MCF7): 75.1%
- inhibition of growth at 10 µM (MDA-MB-468): 73.7%
- inhibition of growth at 10 µM (Hs-578T): 12.6%
- inhibition of growth at 10 µM (NCI-H460): -1.42%
- inhibition of growth at 10 µM (KM12): 3.6%
- inhibition of growth at 10 µM (NCI-H23): 20.8%
